Laboratory results as given in article PMC11573166, “Sodium-dependent glucose co-transport proteins (SGLTs) are not involved in human glucose taste detection” (PLOS ONE, 2024).

Molecular target: T1, human SGLT1 (hSGLT1) (Homo sapiens, UniProt P13866)
T1 construct: gene SLC5A1; Full length human SGLT1 (NP_000334)
T1 sequence (P13866 1-664): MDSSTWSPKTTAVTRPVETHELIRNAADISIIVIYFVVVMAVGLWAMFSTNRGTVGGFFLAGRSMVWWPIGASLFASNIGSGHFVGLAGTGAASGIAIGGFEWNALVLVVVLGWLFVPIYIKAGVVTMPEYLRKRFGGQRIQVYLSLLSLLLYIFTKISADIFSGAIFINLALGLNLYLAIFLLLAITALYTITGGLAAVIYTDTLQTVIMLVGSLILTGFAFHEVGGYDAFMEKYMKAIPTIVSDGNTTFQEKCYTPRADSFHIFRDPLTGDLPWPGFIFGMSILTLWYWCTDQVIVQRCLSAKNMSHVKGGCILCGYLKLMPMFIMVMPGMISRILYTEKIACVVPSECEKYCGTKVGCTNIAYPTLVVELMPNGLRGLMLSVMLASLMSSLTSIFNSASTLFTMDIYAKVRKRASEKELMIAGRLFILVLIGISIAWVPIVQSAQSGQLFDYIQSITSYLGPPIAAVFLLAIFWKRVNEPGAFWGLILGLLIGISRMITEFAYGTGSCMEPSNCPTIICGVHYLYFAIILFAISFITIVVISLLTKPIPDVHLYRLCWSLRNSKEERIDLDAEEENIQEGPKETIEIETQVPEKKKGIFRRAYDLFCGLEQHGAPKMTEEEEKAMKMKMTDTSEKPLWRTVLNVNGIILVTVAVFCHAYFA
Assay: FLIPR membrane potential assay in CHO cells transiently expressing hSGLT1; mock-transfected cells did not respond
Assay type: cell-based

- EC50: 452 µM
SMILES: OC[C@H]1OC(O)[C@H](O)[C@@H](O)[C@@H]1O (stereo partly drawn) [D-glucose]
